# Key:
# [1] = biological target: T1, BPTF bromodomain (Homo sapiens, UniProt Q12830); set-up: against the bromodomains of BPTF and Plasmodium falciparum GCN5 (PfGCN5); his6; made in house; conditions: cited from earlier work
# [2] = biological target: T1, BPTF bromodomain; assay: 1H CPMG NMR deconvolution of hit mixtures, BPTF; type: binding; set-up: deconvolution of the hit mixtures using the non-fluorine-labeled bromodomains; made in house; host or cells: E. coli BL21(DE3); conditions: 10 µM protein, 100 µM ligand
# Experimental: (§1) The second step is a ^1H CPMG NMR deconvolution of the hit mixtures using the non-fluorine-labeled bromodomains. ^1H CPMG NMR employs a T2 filter to take advantage of the difference in transverse relaxation time between protein and small molecules to filter out the bound-state ligand(s). Unlike the PrOF NMR assay, a single protein is assayed in each experiment. A binding event is characterized by a decrease in ligand resonance intensity from the ligand alone spectrum to the ligand + protein spectrum. A hit is defined as a decrease in resonance intensity ≥ 20%. The ^1H CPMG NMR assay can be tuned by changing the protein or ligand concentration, filter length (Figure 1), or hit criteria depending on how stringent the desired hit rate is. The number of ^1H CPMG NMR deconvolution experiments is directly informed from the first step. If a mixture from the first step was only a hit for one protein, a single ^1H CPMG NMR deconvolution experiment is needed. If a mixture from the first step was a hit for both proteins, two separate ^1H CPMG NMR deconvolutions experiments are needed to determine the fragments that bind to each protein.
# (§2) ^1H CPMG NMR. ^1H CPMG NMR screen data were acquired on Bruker Avance III HD 500 with the 5 mm Prodigy TCI cryoprobe inverse cryoprobe (^1H 2500:1 S/N). Competition ^1H CPMG NMR data were acquired on Bruker 700 MHz Avance with a CryoProbe 5 mm TXI (^1H S:N with H2O suppression (2mM sucrose) - 900:1) and excitation sculpting water suppression. Proteins were present at 10 µM in 50 mM phosphate, 100 mM NaCl, pH 7.4 in 100% D2O. In separate NMR tubes, a ^1H CPMG NMR pulse was applied to a 1) mixture of ligands (individual ligands present at 100 µM for the screen and 50 µM for competition experiments) and 2) ligands + protein. […] For the competition experiments, τ was increased to 4.0 ms.
# [3] = biological target: T2, PfGCN5 bromodomain (Plasmodium falciparum, UniProt Q8IB67); assay: 1H-15N HSQC NMR titration with PfGCN5; type: binding
# T2 sequence (Q8IB67 entry or part of it): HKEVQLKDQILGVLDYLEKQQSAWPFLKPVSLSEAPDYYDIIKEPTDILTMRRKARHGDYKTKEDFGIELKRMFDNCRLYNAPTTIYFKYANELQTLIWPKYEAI
# Excerpt: To cross-validate our findings, ^1H-^15N HSQC NMR was used to further examine the binding mode of 9 to PfGCN5 in the presence and absence of known ligands. The ^1H-^15N HSQC spectrum of PfGCN5 is unassigned. For ease of spectral interpretation, all resonances that were distinctly visible were assigned as 1-64. Fragment 9, GSK4027, and the acetylated peptide H2A.Z II K7,13ac were titrated against PfGCN5. At the highest ligand concentration, resonances with Δδ > x^− + 0.60*s, where x^− is the mean and s is the standard deviation at the highest concentration, were defined as significant. The correction factor of 0.60 is to compensate for only 60% of the resonances being usable for analysis. Titration of 9 with PfGCN5 gave linear and non-linear dose-dependent chemical shift perturbations. Of the five resonances with non-linear movement, only one (10) was considered to have significant movement. […] This affinity with the non-fluorine-labeled protein is similar but higher than the affinity determined by PrOF NMR. […]
# ^1H-^15N SOFAST HSQC.^1H-^15N SOFAST HSQC spectra were obtained on a Bruker 600 MHz Avance NEO with a CryoProbe 5 mm TCI (^1H, ^13C, ^15N, ^2H) w/ Z-gradient using Bruker’s IBS_SOFAST.x method with 32 scans, 0.05 s acquisition time, and 0.2 s delay. […] Data were processed with nmrDraw, nmrPipe, and NFRAM Sparky. Δδ^1H-^15N was calculated using Equation (3). […]
# [4] = biological target: T2, PfGCN5 bromodomain; assay: 1H CPMG NMR deconvolution of hit mixtures, PfGCN5; type: binding; conditions: 10 µM protein, 100 µM ligand
# Experimental: as §1, §2
# [5] = biological target: T2, PfGCN5 bromodomain; assay: Competition 1H CPMG NMR with PfGCN5; type: binding
# Excerpt: The competition ^1H CPMG NMR and PrOF NMR assays were employed to further probe the binding mode of 9 to PfGCN5. […] At high concentrations, at or above the protein concentration, the competition maxed out at ~ 50% (Figure 2, Figure S10, Table S5). Conversely, TP-238 was able to compete 9 off from BPTF at low concentrations.
# ^1H CPMG NMR. ^1H CPMG NMR screen data were acquired on Bruker Avance III HD 500 with the 5 mm Prodigy TCI cryoprobe inverse cryoprobe (^1H 2500:1 S/N). Competition ^1H CPMG NMR data were acquired on Bruker 700 MHz Avance with a CryoProbe 5 mm TXI (^1H S:N with H2O suppression (2mM sucrose) - 900:1) and excitation sculpting water suppression. Proteins were present at 10 µM in 50 mM phosphate, 100 mM NaCl, pH 7.4 in 100% D2O. In separate NMR tubes, a ^1H CPMG NMR pulse was applied to a 1) mixture of ligands (individual ligands present at 100 µM for the screen and 50 µM for competition experiments) and 2) ligands + protein. For competition experiments, the ligands were used individually, and the competitor ligands were spiked into tube 2. ^1H CPMG NMR parameters for the screen: NS = 128, acquisition time = 2 s, τ = 2.5 ms, and L = 120. For the competition experiments, τ was increased to 4.0 ms.
# [6] = biological target: BRD4 D1; conditions: data from previous screen; cited from earlier work
# [7] = for 9 from competition experiments (footnote a)
compound,measurement,setting,value
Nc1ccc2c(c1)N(C(=O)C1CC1)CCC2 [Fragment 9],single-point PrOF NMR Δδ with BPTF,"[1]; 400 µM 9, previous screen",0.453 ppm
same,Kd,[1]; via PrOF NMR,180 µM
same,BPTF CPMG % decrease,[2],100%
same,1H CPMG NMR % Drop in Resonance Intensity BPTF,[2]; [7],++++ ^a (++++ = 80–99.9%)
same,Kd,[3],7.5 µM
same,PfGCN5 CPMG % decrease,[4],100%
same,1H CPMG NMR % Drop in Resonance Intensity PfGCN5,[4]; [7],++++ ^a (++++ = 80–99.9%)
same,% drop PfGCN5,"[5]; resonance of 9 at 2.6884 ppm, GSK series",72%
same,% drop PfGCN5,"[5]; resonance of 9 at 2.6884 ppm, L-Moses series",83%
same,% drop PfGCN5,"[5]; resonance of 9 at 6.98 ppm, GSK series",71%
same,% drop PfGCN5,"[5]; resonance of 9 at 6.98 ppm, L-Moses series",75%
same,Kd,[6],50 µM
